Source: patent US4315026A, “Alkylpolyoxysulfinyl and alkylpolythiosulfinyl derivatives of carbamate esters” (priority 1980, dated 1982)

Experiment: Mammalian toxicity, oral, Swiss white mice (LD50)
Type: in vivo
Settings: mouse, in vivo, propylene glycol carrier
Method: For mice toxicity, the compound was dissolved in propyleneglycol or corn oil as a carrier and all compounds were tested at the level up to 1,000 mg/kg. All of the above noted compounds tested were lower in toxicity as compared with the parent compounds.
Mammalian toxicity was determined against Swiss white mice.

SMILES | LD50
CSC(C)=NOC(=O)N(C)S(=O)OC1COC(c2ccccc2)OC1 (stereo not drawn) [X, S-Methyl N-(2-phenyl-1,3-dioxane-5-ylmethoxysulfinyl)N-methylcarbamoyloxythioacetimidate] | 85 mg/kg
C=CCOCC(COS(=O)N(C)C(=O)Oc1cccc(C)c1)OS(=O)N(C)C(=O)Oc1cccc(C)c1 (stereo not drawn) [XIX, N,N'-(3-Allyloxy-1,2-propanedioxysulfinyl)-bis (3-methylphenyl methylcarbamate)] | > 1000 mg/kg
CSC(C)=NOC(=O)N(C)S(=O)OCC(COS(=O)N(C)C(=O)ON=C(C)SC)OS(=O)N(C)C(=O)ON=C(C)SC (stereo not drawn) [XV, N,N',N",-(1,2,3-Propanetrioxysulfinyl)-tris (S-methyl N-methylcarbamoyloxythioacetimidate)] | 50 to 100 mg/kg
Cc1cccc(OC(=O)N(C)S(=O)OCC2COC(C)(C)O2)c1 (stereo not drawn) [XX, 3-Methylphenyl N-(2,2-dimethyl-1,3-dioxolane-5-ylmethoxysulfinyl)-N-methylcarbamate] | > 1000 mg/kg
C=CCOC(COS(=O)N(C)C(=O)Oc1cccc(C)c1)COS(=O)N(C)C(=O)Oc1cccc(C)c1 (stereo not drawn) [XXI, N,N'-(2-Allyloxy-1,3-propanedioxysulfinyl)-bis (3-methylphenyl methylcarbamate)] | > 1000 mg/kg
Cc1cccc(OC(=O)N(C)S(=O)OCC(COCc2ccccc2)OS(=O)N(C)C(=O)Oc2cccc(C)c2)c1 (stereo not drawn) [XXII, N,N'-(3-Benzyloxy-1,2-propanedioxysulfinyl)-bis (3-methylphenyl methylcarbamate)] | > 1000 mg/kg
Cc1cccc(OC(=O)N(C)S(=O)OCC(COC(C)C)OS(=O)N(C)C(=O)Oc2cccc(C)c2)c1 (stereo not drawn) [XXIII, N,N'-(3-Isopropoxy-1,2-propanedioxysulfinyl)-bis (3-methyl-phenyl methylcarbamate)] | > 1000 mg/kg
Cc1cccc(OC(=O)N(C)S(=O)OCC23OCC4OC(C)(C)OC4C2OC(C)(C)O3)c1 (stereo not drawn) [XXIV, 3-Methylphenyl N-(2,3,4,5-di-O-isopropylidene-1-α-O-fructopyranosylsulfinyl)-N-methylcarbamate] | > 1000 mg/kg
Cc1cccc(OC(=O)N(C)S(=O)OC2C3OC(C)(C)OC3COC23COC(C)(C)O3)c1 (stereo not drawn) [XXV, 3-Methylphenyl N-(1,2,4,5-di-O-isopropylidene-3-O-fructopyranosylsulfinyl)-N-methylcarbamate] | > 1000 mg/kg
Cc1cccc(OC(=O)N(C)S(=O)OC2C(C3COC(C)(C)O3)OC3OC(C)(C)OC32)c1 (stereo not drawn) [XXVI, 3-Methylphenyl N-(1,2,5,6-di-O-isopropylidene-3-O-glucofuranosylsulfinyl)-N-methylcarbamate] | > 1000 mg/kg
CSC(=NOC(=O)N(C)S(=O)OCC(COCc1ccccc1)OS(=O)N(C)C(=O)ON=C(SC)C(=O)N(C)C)C(=O)N(C)C (stereo not drawn) [XXXI, N,N'-(3-Benzyloxy-1,2-propanedioxysulfinyl)-bis-[S-methylcarbamoyloxy-2-(N',N'-dimethylamino)-2-oxoethanimidothioate]] | 12.5 to 25 mg/kg
CSC(=NOC(=O)N(C)S(=O)OCC(COC(C)C)OS(=O)N(C)C(=O)ON=C(SC)C(=O)N(C)C)C(=O)N(C)C (stereo not drawn) [XXXII, N,N'-(3-Isopropoxy-1,2-propanedioxysulfinyl)-bis[S-methyl N-methylcarbamoyloxy-2-(N',N'-dimethylamino)-2-oxoethanimidothioate]] | 16 mg/kg
CC(C)OCC(COS(=O)N(C)C(=O)Oc1cccc2ccccc12)OS(=O)N(C)C(=O)Oc1cccc2ccccc12 (stereo not drawn) [XXXIX, N,N'-(3-Isopropoxy-1,2-propanedioxysulfinyl)-bis(1-naphthyl methylcarbamate)] | > 1000 mg/kg
C=CCOCC(COS(=O)N(C)C(=O)Oc1cccc2ccccc12)OS(=O)N(C)C(=O)Oc1cccc2ccccc12 (stereo not drawn) [XXXVI, N,N'-(3-Allyloxy-1,2-propanedioxysulfinyl)-bis(1-naphthyl methylcarbamate)] | > 1000 mg/kg
C=CCOC(COS(=O)N(C)C(=O)Oc1cccc2ccccc12)COS(=O)N(C)C(=O)Oc1cccc2ccccc12 (stereo not drawn) [XXXVII, N,N'-(2-Allyloxy-1,3-propanedioxysulfinyl)-bis(1-naphthyl methylcarbamate)] | > 1000 mg/kg
